From paper PMC10232439, “Identification of photocrosslinking peptide ligands by mRNA display” (Communications Chemistry, 2023)
Each block holds one molecule with its values, some of them ahead of it. Where a SMILES comes first, the peptide text is derived from it. Bridges are numbered along the chain shown (N, C = ends). Where no end group is shown, it is not given here. [ ]: non-standard residue; d: D form. The star is where a group is joined. 5FAM = O=C1OC2(c3ccc(O)cc3Oc3cc(O)ccc32)c2ccc(C(=O)*)cc21; Bpa = N[C@@H](Cc1ccc(C(=O)c2ccccc2)cc1)C(=O)O

Assays:
BRD3-BD2 [1] = biological target: T1, BRD3-BD2 (Homo sapiens, UniProt Q15059); test: Direct fluorescence anisotropy binding assay; conditions: direct fluorescence anisotropy with FAM-labelled peptide (100 nM final), 12-point 2-fold dilution of BRD3-BD2, 30 min rt, read at 25 °C; mean of at least three replicates ± SD
T1 construct: BRD3-BD2 (306–421, Q15059); Avi tag (biotinylated in vivo; vector pQE80L-Navi); made in house; host or cells: Escherichia coli BL21(DE3)
T1 sequence (Q15059 306-421): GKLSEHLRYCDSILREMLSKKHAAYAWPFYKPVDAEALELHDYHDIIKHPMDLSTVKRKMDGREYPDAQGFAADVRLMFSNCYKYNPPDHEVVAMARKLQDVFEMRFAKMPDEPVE
Procedure: Binding affinities for the two fluorescently tagged peptides were then determined using a direct fluorescence anisotropy assay (Fig. 2d and Supplementary Fig. S6). […] Having established that our peptides were able to bind to BRD3-BD2, we next assessed the crosslinking efficiency of the unlabelled variants. We were pleased to find that both peptides efficiently cross-linked to BRD3-BD2 upon exposure to UV light. After incubation with two equivalents of peptide and irradiation at 365 nm for only 5 min, we observed around 40% protein modification as analysed by sample separation on an SDS-PAGE gel and Coomassie staining. […]
(§1) S7. Direct fluorescence anisotropy assay […]
(§2) After 30 min, fluorescence anisotropy was measured with a CLARIOstar plate reader (BMG Labtech) using excitation at 482 nm and emissions at 530 nm at 25 °C. […] KD values were calculated using GraphPad Prism and a curve fitted using a one site - total fitting model. […]
(§3) Irradiated samples were analysed by SDS-PAGE on 4–20% Bis-Tris gels (mPAGE, Millipore).
(§4) Experiments with Bpa-P1 and Bpa-P2 were visualised by Quick Coomassie staining (Neo Biotech) with gels imaged on a Chemidoc MP Imaging System (Biorad) and quantified by Fiji. Experiments with Bpa-P1-FAM and Bpa-P2-FAM were visualised by in gel fluorescence imaging using a Typhoon FLA 9500 […]
Irradiated samples with BRD3-BD2 were further analysed by LCMS. […]

BRD3-BD1 = conditions: tight binding peptide to its target protein BRD3-BD1; cited from earlier work
BRD3-BD2 [2] = biological target: T1, BRD3-BD2; test: Photocrosslinking of BRD3-BD2, SDS-PAGE/Coomassie densitometry; format: biochemical; conditions: BRD3-BD2 20 µM, peptide 40 µM (two equivalents), 365 nm for 40 min, 0 °C; SDS-PAGE, Coomassie; mean of triplicate
Procedure: Fig. 3 Photocrosslinking of BRDs with pBpa-containing ligands. a Crosslinking between BRD3-BD2 (20 µM) and cyclic peptides (40 µM) after exposure to UV irradiation (365 nm) for variable amounts of time (0, 5, 10, 20, 40 min). Samples were separated on an SDS-PAGE gel and visualised by Coomassie staining. b Plot of percentage of cross-linked BRD3-BD2 calculated by densitometric analysis of protein bands from (a). Crosslinking efficiencies are represented as the mean of triplicate experiments ±1 standard deviation. c Crosslinking of BRD3-BD2/BRD2-BD2/BRD4-BD2/BRD3-BD1 (2 µM) by cyclic peptides (20 µM) after exposure to UV irradiation for 30 min. Samples were analysed and processed as described in (a, b). […]
as §1, §2, §3, §4

[3] = biological target: T2, second bromodomain of BRD3 (BRD3-BD2), biotinylated (human (from the printed accession), UniProt Q15059 306-421, biotin (biotinylated; cultures induced with IPTG and 100 µM biotin)); test: SPR; peptide 3.2B on BRD3-BD2 cross-linked to Bpa-P1 or Bpa-P2; mean ± standard deviation of the mean; conditions: both partners purified
T2 construct: BRD3, second bromodomain, residues 306-421 of Q15059; also called wild-type BRD3-BD2; source: E. coli BL21(DE3), purified (HisTrap, Superdex 75)
T2 sequence (Q15059 306-421): as above

Molecule: CC[C@H](C)[C@@H]1NC(=O)[C@H](Cc2ccccc2)NC(=O)[C@H](Cc2ccc(C(=O)c3ccccc3)cc2)NC(=O)[C@H]([C@@H](C)O)NC(=O)[C@H](CC(=O)O)NC(=O)CNC(=O)[C@H](CCCCN)NC(=O)[C@H](C)NC(=O)[C@H](CC(N)=O)NC(=O)[C@H](CC(C)C)NC(=O)[C@@H](Cc2ccc(O)cc2)NC(=O)CSC[C@@H](C(=O)NCC(=O)N[C@@H](CCCCNC(=O)c2ccc3c(c2)C(=O)OC32c3ccc(O)cc3Oc3cc(O)ccc32)C(N)=O)NC(=O)[C@H](Cc2ccc(O)cc2)NC(=O)[C@H]([C@@H](C)CC)NC1=O [Bpa-P2-FAM] ({CH2CO}-[dY]LNAKGDT[Bpa]FIIYCGK(5FAM)-NH2; thioether N-14)
Kd (BRD3-BD2 [1]): 14 ± 1 µM

Molecule: cyclic-WKTIKGKTWRTKQC(S-) (sidechain bridge or staple) [3.1B, previously identified non-covalent cyclic peptide ligand of the first bromodomain of BRD3, BRD3-BD1]
Kd (BRD3-BD1): 0.00049 µM

Molecule: CC[C@H](C)[C@@H]1NC(=O)[C@H](Cc2ccccc2)NC(=O)[C@H](Cc2ccc(C(=O)c3ccccc3)cc2)NC(=O)[C@H]([C@@H](C)O)NC(=O)[C@H](CC(=O)O)NC(=O)CNC(=O)[C@H](CCCCN)NC(=O)[C@H](C)NC(=O)[C@H](CC(N)=O)NC(=O)[C@H](CC(C)C)NC(=O)[C@@H](Cc2ccc(O)cc2)NC(=O)CSC[C@@H](C(=O)NCC(N)=O)NC(=O)[C@H](Cc2ccc(O)cc2)NC(=O)[C@H]([C@@H](C)CC)NC1=O [Bpa-P2] ({CH2CO}-[dY]LNAKGDT[Bpa]FIIYCG-NH2; thioether N-14)
protein modification (cross-linked BRD3-BD2) (BRD3-BD2 [2]): 78%

Molecule: CC(C)C[C@@H]1NC(=O)[C@H](Cc2ccc(O)cc2)NC(=O)[C@H](Cc2ccc(C(=O)c3ccccc3)cc2)NC(=O)[C@H](CC(=O)O)NC(=O)[C@H](CC(=O)O)NC(=O)[C@H](CC(N)=O)NC(=O)[C@H](C(C)C)NC(=O)[C@H](CO)NC(=O)[C@H](CC(N)=O)NC(=O)[C@H](CC(C)C)NC(=O)[C@@H](Cc2ccc(O)cc2)NC(=O)CSC[C@@H](C(=O)NCC(N)=O)NC(=O)[C@H](Cc2ccc(O)cc2)NC(=O)[C@H](C)NC1=O [Bpa-P1] ({CH2CO}-[dY]LNSVNDD[Bpa]YLAYCG-NH2; thioether N-14)
protein modification (cross-linked BRD3-BD2) (BRD3-BD2 [2]): 96%

Molecule: CC(C)C[C@@H]1NC(=O)[C@H](Cc2ccc(O)cc2)NC(=O)[C@H](Cc2ccc(C(=O)c3ccccc3)cc2)NC(=O)[C@H](CC(=O)O)NC(=O)[C@H](CC(=O)O)NC(=O)[C@H](CC(N)=O)NC(=O)[C@H](C(C)C)NC(=O)[C@H](CO)NC(=O)[C@H](CC(N)=O)NC(=O)[C@H](CC(C)C)NC(=O)[C@@H](Cc2ccc(O)cc2)NC(=O)CSC[C@@H](C(=O)NCC(=O)N[C@@H](CCCCNC(=O)c2ccc3c(c2)C(=O)OC32c3ccc(O)cc3Oc3cc(O)ccc32)C(N)=O)NC(=O)[C@H](Cc2ccc(O)cc2)NC(=O)[C@H](C)NC1=O [Bpa-P1-FAM] ({CH2CO}-[dY]LNSVNDD[Bpa]YLAYCGK(5FAM)-NH2; thioether N-14)
Kd (BRD3-BD2 [1]): 29 ± 10 µM

binding result [3]: binds
B1: peptide 3.2B (peptide)
peptide: WSWLCKK(Ac)YNLIH
modifications: thioether (positions not given here); not fully specified (bridges); also: cyclic through C5 sulfur, other ring end not given here, bridge at 5, other end not in the chain
notes: Printed as cyclic-WSWLC(S-)KKYNLIH with the second K underlined (acetylated)
